Reference: patent publication US11679123B2, “N-acylated hyaluronic acid for hyperuricemia and gouty arthritis” (Queen's University at Kingston, priority 2018, dated 2023)

Tests used:
[1] = system: inflammatory cell infiltration in the synovium; experiment: Histopathological assessment of ankle joint synovium (H&E) in MSU crystal-injected rats; type: in vivo, Wistar rats
Protocol: In one study, a histopathological assessment was conducted of synovium in ankle joints of rats after H&E staining. The right ankles of […] were excised and fixed in 4% paraformaldehyde, and subsequently decalcified using 10% ethylenediaminetetraacetic acid. They were then dehydrated via processing in alcohol/xylene mixtures with different proportions and concentrations. The histological sections were stained with hematoxylin and eosin. The histopathological changes of the joint synovium were assessed for the degree of inflammatory cell infiltrate, by an experienced histopathologist. Microscopy at magnifications of 40×, 100×, 200× and 400× were investigated for typical areas for each of the five groups.
The right ankles of rats were collected and fixed in 4% paraformaldehyde, and subsequently decalcified using 10% ethylenediaminetetraacetic acid. They were then dehydrated by processing in alcohol/xylene mixtures with different proportions and concentrations. The histological sections were later stained with hematoxylin and eosin for observation under an optical microscope (200×). The histopathological changes were analyzed with regard to deformaties of the joint synovium and infiltration by inflammatory cells into the ankle.

inflammation factors = experiment: Serum inflammation factors by ELISA in rats with MSU-induced acute gout; type: in vivo, Wistar rats; details: for 6-Keto-PGF1α / IFN-γ / IL-1α / IL-1β / IL-6 / IL-8 / IL-10 / IL-16 / IP-10 / MCP-1 / MIP-1α / NF-κB / PGE2 / TNF-α / TNF-β: serum, MSU-induced acute gout rats, mean ± S.D., n=10
Protocol: An experimental model of MSU-induced gouty arthritis was used in order to evaluate the anti-inflammatory activities of BHA. Rats were randomly divided into five groups (n=10), include a control group (NC), a model group (MC), a 0.3 mg/kg colchicine group (COL), a 10 μg BHA group (10BHA) and a 50 μg BHA group (50BHA). MSU crystals were suspended in 0.9% sterile saline (30 mg/mL) prior to use. The colchicine group rats were orally administrated colchicine (0.3 mg/kg) for 8 days, and all rats except for the control group were injected with 3 mg of MSU (Sigma, USA) at the 6th day into the right ankle synovial space 1 h after gavage feeding. Meanwhile a turbid sample of MSU mixed with 100 μg of BHA or 500 μg of BHA per mL of solution for 10BHA rats or 50BHA rats. At the 8th day, 1 h after the administration of the final agents, blood was sampled from the caudal veins of the rats and the right ankle joints of the rats were collected and fixed in 4% paraformaldehyde. Serum was separated and stored at −80° C. prior to analysis (FIG. 2A, E).
The serum levels of interleukin-1α (IL-1α, 41734), IL-1β (43360), interleukin-6 (IL-6, 41731), interleukin-8 (IL-8, 41716), IL-10 (41736), interleukin-16 (IL-16, 41628), C—X—C motif chemokine 10 (CXCL10, 41570), monocyte chemoattractant protein 1 (MCP-1, 41640), macrophage inflammatory protein 1α (MIP-1α, 41645), interferon gamma (IFN-γ, 41739), TNF-α (41721), tumor necrosis factor-β (TNF-β, 41673), nuclear factor κ-light-chain-enhancer of activated B cells (NF-κB, 43358), 6-keto-prostaglandin F-1α (6-Keto-PGF1α, 41809) and prostaglandin E2 (PGE2, 41609) in rats were determined by the ELISA method using related Elisa Kits (Yuanye Bio-Technology Co. Ltd, Shanghai, China) according to the manufacturer's instructions.

xanthine oxidase (XO) = experiment: XO levels in serum and liver of hyperuricemic mice; type: in vivo, Balb/C mice
Protocol: (§1) Due to the presence of uricase in mice, a hyperuricemic mouse model was established by using uricase inhibitor and large amounts of purine. Mice were randomly divided into five groups (n=10), including the control group (NC), model group (MC), 20 mg/kg of AL (Shimao Tianjie Pharmaceutical Co. Ltd, Jiangsu, China) group, 10 μg BHA group (10BHA) and 50 μg BHA group (50BHA). Oral administration of AL and intraperitoneal injection of BHA were administered according to the required dose, and all mice were gavage fed 20 g/kg yeast extract powder 12 h prior to the administration of AL and BHA except for NC mice for 8 days. From the 6th to 8th day, 1-h prior to AL and BHA administration, 300 mg/kg of OXO (Sigma, USA) was intraperitoneally injected to all of the mice except those in the control group. At 1 h after the final drug administration, blood was sampled from caudal veins of the mice, serum was separated and their livers were quickly collected (FIG. 3A, E). All samples were stored at −80° C. until assay measurements were performed.
The serum UA concentrations and XO levels in the serum and liver were determined with a standard diagnostic kit (MAK077, MAK078 Sigma, USA) according to the manufacturer's instructions.

[2] = system: creatinine (Cr) and blood urea nitrogen (BUN); experiment: Cr and urea nitrogen in serum and liver of hyperuricemic mice (renal function); type: in vivo, Balb/C mice; details: for lowering of Cr in the serum / lowering of urea nitrogen in the liver: BHA, P<0.05
Protocol: as §1
The levels of reactive oxygen species (ROS, 43355), malondialdehyde (MDA, 43124) glutathione peroxidase (GSH-Px, 43390), superoxide dismutase (SOD, 43125), catalase (CAT, 43356), creatinine (Cr, 43353) and blood urea nitrogen (BUN, 43352) in the serum and livers of mice were determined using ELISA Kits (Yuanye Bio-Technology Co. Ltd, Shanghai, China) according to the manufacturer's instructions.

[3] = 10 μg BHA intra-articular with MSU (10BHA)
[4] = 50 μg BHA intra-articular with MSU (50BHA)

## N-butyrylated HA [BHA]
[1]; 10 μg of BHA, MSU crystal-injected rats, H&E
  pathological changes (inflammatory cell infiltration) in synovium: partially prevented the pathological changes
[1]; higher dose BHA (50BHA, 50 μg)
  attenuation of inflammatory cell infiltration in synovium: not as effective as the 10BHA dose
Inflammation factors; 10 μg BHA, P<0.05
  decrease of serum IL-8 compared to rats injected with MSU: 7.13%
  decrease of serum MCP-1 compared to rats injected with MSU: 7.76%
  increase of serum IL-10 compared to rats injected with MSU: 9.49%
Inflammation factors; 50 μg BHA, P<0.05
  decrease of serum IFN-γ compared to rats injected with MSU: 33.18%
  decrease of serum IL-1β compared to rats injected with MSU: 5.56%
  decrease of serum IL-8 compared to rats injected with MSU: 6.55%
  decrease of serum MCP-1 compared to rats injected with MSU: 15.58%
Inflammation factors; [3]
  6-Keto-PGF1α: 257 ± 20.8
  IFN-γ: 107.4 ± 7.6 pg/mL
  IL-1α: 71.5 ± 11.2 pg/mL
  IL-1β: 19.6 ± 1.6 pg/mL
  IL-6: 78.5 ± 5.6 pg/mL
  IL-8: 213.8 ± 11.4 pg/mL
  IL-10: 12 ± 0.9 pg/mL
  IL-16: 399.3 ± 14.8 pg/mL
  IP-10: 154.3 ± 18^ pg/mL
  MCP-1: 321.2 ± 20.5 pg/mL
  MIP-1α: 282.8 ± 23.6 pg/mL
  NF-κB: 589.8 ± 104. pg/mL
  PGE2: 209.7 ± 17.3 pg/mL
  TNF-α: 155.9 ± 11.4 pg/mL
  TNF-β: 139.1 ± 25.7 pg/mL
Inflammation factors; [4]
  6-Keto-PGF1α: 262 ± 10.8
  IFN-γ: 75.4 ± 31.7 pg/mL
  IL-1α: 77.4 ± 13 pg/mL
  IL-1β: 18.8 ± 0.8 pg/mL
  IL-6: 75 ± 5.3 pg/mL
  IL-8: 216.6 ± 11.6 pg/mL
  IL-10: 11.6 ± 1.1 pg/mL
  IL-16: 401.2 ± 25.1 pg/mL
  IP-10: 150.5 ± 7.5 pg/mL
  MCP-1: 292 ± 27.8 pg/mL
  MIP-1α: 283.9 ± 12.7 pg/mL
  NF-κB: 513 ± 74.1 pg/mL
  PGE2: 193.2 ± 12.7 pg/mL
  TNF-α: 152.7 ± 12.1 pg/mL
  TNF-β: 129 ± 21.9 pg/mL
Xanthine oxidase (XO); 10 μg BHA, P<0.05
  reduction of XO levels in the liver compared to untreated mice: 19.78%
Xanthine oxidase (XO); 50 μg BHA
  XO activity in the livers of hyperuricemic mice: no significant effect on XO activity
[2]; 10 μg BHA, P<0.01
  lowering of Cr in the liver: 8.14%
[2]; second value listed (10 μg)
  lowering of Cr in the serum: 8.21%
  lowering of urea nitrogen in the liver: 11.65%
[2]; third value listed (50 μg)
  lowering of Cr in the serum: 12.02%
  lowering of urea nitrogen in the liver: 12.81%
